Data from patent US20050070554A1, “Substituted heterocyclic compounds and methods of use” (Amgen Inc., priority 2003, published 2005).

Molecular target: T1, LCK (Homo sapiens, UniProt P06239)
T1 construct: LCK KD GST (225-509); GST
Test: LCK-Homogeneous Time Resolved Fluorescent (HTRF) Kinase Assay
Assay type: biochemical
Conditions: not given
Method: LCK-Homogeneous Time Resolved Fluorescent (HTRF) Kinase Assay:
The LCK HTRF assay begins with LCK in the presence of ATP phosphorylating the biotinylated peptide Gastrin. The reaction incubates for 90 min. To quench the assay detection reagents are added which both stop the reaction by diluting out the enzyme and chelating the metals due to the presence of EDTA. Once the detection reagents are added the assay incubates for 30 min to allow for equilibration of the detection reagents.
Buffer conditions are as follows: 50 mM HEPES pH 7.5, 50 mM NaCl, 20 mM MgCl, 5 mM MnCl, 2 mM DTT, 0.05% BSA.
The assay is quenched and stopped with 160 μL of detection reagent. Detection reagents are as follows: Buffer made of 50 mM Tris, pH 7.5, 100 mM NaCl, 3 mM EDTA, 0.05% BSA, 0.1% Tween20.
The assay plate is read in either a Discovery or a RubyStar.

T1 sequence (P06239 225-509): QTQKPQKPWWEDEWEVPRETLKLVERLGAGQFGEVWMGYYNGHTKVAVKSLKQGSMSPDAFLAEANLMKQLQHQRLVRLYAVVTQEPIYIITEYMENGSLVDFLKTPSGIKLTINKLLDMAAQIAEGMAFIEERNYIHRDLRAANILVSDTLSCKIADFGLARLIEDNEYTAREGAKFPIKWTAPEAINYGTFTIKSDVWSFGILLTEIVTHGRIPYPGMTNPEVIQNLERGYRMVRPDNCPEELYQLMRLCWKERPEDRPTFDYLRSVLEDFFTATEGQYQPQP

IC50, < 1000 nM:
Cc1cccc(C)c1-n1c(=O)c2cnc(Nc3ccc(OCCN4CCN(C)CC4)c(F)c3)nc2n2c3ccccc3nc12 [No. 38, 6-(2,6-dimethylphenyl)-2-((3-fluoro-4-((2-(4-methyl-1-piperazinyl)ethyl)oxy)phenyl)amino)-pyrimido[5′,4′:5,6]pyrimido[1,2-a]benzimidazol-5(6H)-one]
Cc1ccc(-n2c(=O)c3cnc(Nc4ccc(N5CCN(C)CC5)cc4)nc3n3c4ccccc4nc23)cc1 [No. 78, 6-(4-methylphenyl)-2-((4-(4-methyl-1-piperazinyl)-phenyl)amino)pyrimido[5′,4′:5,6]pyrimido[1,2-a]-benzimidazol-5(6H)-one]

Same assay, conditions: read-out: activity in the LCK-HTRF Kinase Assay

IC50, < 1000 nM:
C[C@@H](c1ccccc1)n1c(=O)c2cnc(Nc3ccc(N4CCN(C)CC4)cc3)nc2n2c3ccccc3nc12 [No. 60, 2-((4-(4-methyl-1-piperazinyl)phenyl)amino)-6-((1S)-1-phenylethyl)pyrimido[5′,4′:5,6]pyrimido[1,2-a]-benzimidazol-5(6H)-one]
CN1CCN(c2ccc(Nc3ncc4c(=O)n(-c5cccc(F)c5)c5nc6ccccc6n5c4n3)cc2)CC1 [No. 83, 6-(3-fluorophenyl)-2-((4-(4-methyl-1-piperazinyl)-phenyl)amino)pyrimido[5′,4′:5,6]pyrimido[1,2-a]-benzimidazol-5(6H)-one]
COc1cc(Nc2ncc3c(=O)n(-c4c(C)cccc4C)c4nc5ccccc5n4c3n2)cc(OC)c1OCCN1CCN(C)CC1 [No. 22, 2-((3,5-bis(methyloxy)-4-((2-(4-methyl-1-piperazinyl)ethyl)oxy)phenyl)amino)-6-(2,6-dimethylphenyl)pyrimido[5′,4′:5,6]pyrimido[1,2-a]-benzimidazol-5(6H)-one]
Cc1cccc(C)c1-n1c(=O)c2cnc(Nc3ccc(OC[C@H]4CCCN4)cc3)nc2n2c3ccccc3nc12 [No. 23, 6-(2,6-dimethylphenyl)-2-((4-(((2R)-2-pyrrolidinylmethyl)oxy)phenyl)amino)-pyrimido[5′,4′:5,6]pyrimido[1,2-a]benzimidazol-5(6H)-one]
COc1cc(Nc2ncc3c(=O)n(-c4c(C)cccc4C)c4nc5ccccc5n4c3n2)ccc1N1CCN(C(C)C)CC1 [No. 46, 6-(2,6-dimethylphenyl)-2-((4-(4-(1-methylethyl)-1-piperazinyl)-3-(methyloxy)phenyl)amino)-pyrimido[5′,4′:5,6]pyrimido[1,2-a]benzimidazol-5(6H)-one]
CN1CCN(c2ccc(Nc3ncc4c(=O)n(-c5c(F)cccc5F)c5nc6ccccc6n5c4n3)cc2)CC1 [No. 88, 6-(2,6-difluorophenyl)-2-((4-(4-methyl-1-piperazinyl)-phenyl)amino)pyrimido[5′,4′:5,6]pyrimido[1,2-a]-benzimidazol-5(6H)-one]
Cc1cccc(C)c1-n1c(=O)c2cnc(Nc3ccc(N4CCN(C(C)C)CC4)cc3)nc2n2c3ccccc3nc12 [No. 31, 6-(2,6-dimethylphenyl)-2-((4-(4-(1-methylethyl)-1-piperazinyl)phenyl)amino)pyrimido[5′,4′:5,6]-pyrimido[1,2-a]benzimidazol-5(6H)-one]
Cc1cccc(C)c1-n1c(=O)c2cnc(Nc3cccc(OCCCN4CCN(C)CC4)c3)nc2n2c3ccccc3nc12 [No. 39, 6-(2,6-dimethylphenyl)-2-((3-((3-(4-methyl-1-piperazinyl)propyl)oxy)phenyl)amino)-pyrimido[5′,4′:5,6]pyrimido[1,2-a]benzimidazol-5(6H)-one]
CN1CCN(c2ccc(Nc3ncc4c(=O)n(-c5ccccc5F)c5nc6ccccc6n5c4n3)cc2)CC1 [No. 79, 6-(2-fluorophenyl)-2-((4-(4-methyl-1-piperazinyl)-phenyl)amino)pyrimido[5′,4′:5,6]pyrimido[1,2-a]-benzimidazol-5(6H)-one]
Cc1cccc(C)c1-n1c(=O)c2cnc(Nc3ccc(N4CCN(CCO)CC4)cc3)nc2n2c3ccccc3nc12 [No. 69, 6-(2,6-dimethylphenyl)-2-((4-(4-(2-hydroxyethyl)-1-piperazinyl)phenyl)amino)pyrimido[5′,4′:5,6]-pyrimido[1,2-a]benzimidazol-5(6H)-one]
Cc1cccc(C)c1-n1c(=O)c2cnc(Nc3ccc(OCCCN4CCCCC4)c(F)c3)nc2n2c3ccccc3nc12 [No. 5, 6-(2,6-dimethylphenyl)-2-((3-fluoro-4-((3-(1-piperidinyl)propyl)oxy)phenyl)amino)-pyrimido[5′,4′:5,6]pyrimido[1,2-a]benzimidazol-5(6H)-one]
Cc1cccc(C)c1-n1c(=O)c2cnc(Nc3ccc(N4CCNCC4)cc3)nc2n2c3ccccc3nc12 [No. 2, 6-(2,6-dimethylphenyl)-2-((4-(1-piperazinyl)phenyl)-amino)pyrimido[5′,4′:5,6]pyrimido[1,2-a]-benzimidazol-5(6H)-one]
Cc1cccc(C)c1-n1c(=O)c2cnc(Nc3cccc(N4CCN(C)CC4)c3)nc2n2c3ccccc3nc12 [No. 48, 6-(2,6-dimethylphenyl)-2-((3-(4-methyl-1-piperazinyl)phenyl)amino)pyrimido[5′,4′:5,6]-pyrimido[1,2-a]benzimidazol-5(6H)-one]
Cc1cccc(C)c1-n1c(=O)c2cnc(Nc3ccc(OCCNC(C)C)cc3)nc2n2c3ccccc3nc12 [No. 56, 6-(2,6-dimethylphenyl)-2-((4-((2-((1-methylethyl)-amino)ethyl)oxy)phenyl)amino)pyrimido[5′,4′:5,6]-pyrimido[1,2-a]benzimidazol-5(6H)-one]
Cc1cccc(C)c1-n1c(=O)c2cnc(Nc3ccc(N4CCN(C)CC4)cc3)nc2n2ccnc12 [No. 87, 6-(2,6-dimethylphenyl)-2-((4-(4-methyl-1-piperazinyl)phenyl)amino)imidazo[1,2-a]-pyrimido[5,4-e]pyrimidin-5(6H)-one]
Cc1cccc(C)c1-n1c(=O)c2cnc(Nc3ccc(OCCN4CCCCC4)c(Cl)c3)nc2n2c3ccccc3nc12 [No. 59, 2-((3-chloro-4-((2-(1-piperidinyl)ethyl)oxy)phenyl)-amino)-6-(2,6-dimethylphenyl)pyrimido[5′,4′:5,6]-pyrimido[1,2-a]benzimidazol-5(6H)-one]
CCN(CC)CCN(C)C(=O)c1ccc(Nc2ncc3c(=O)n(-c4c(C)cccc4C)c4nc5ccccc5n4c3n2)cc1 [No. 64, N-(2-(diethylamino)ethyl)-4-((6-(2,6-dimethylphenyl)-5-oxo-5,6-dihydropyrimido[5′,4′:5,6]pyrimido[1,2-a]-benzimidazol-2-yl)amino)-N-methylbenzamide]
Cc1cccc(C)c1-n1c(=O)c2cnc(Nc3ccc(N4CCN(C)CC4)c(F)c3)nc2n2c3ccccc3nc12 [No. 26, 6-(2,6-dimethylphenyl)-2-((3-fluoro-4-(4-methyl-1-piperazinyl)phenyl)amino)pyrimido[5′,4′:5,6]-pyrimido[1,2-a]benzimidazol-5(6H)-one]
Cc1cccc(C)c1-n1c(=O)c2cnc(Nc3ccc(OCCN4CCN(C)CC4)cc3)nc2n2c3ccccc3nc12 [No. 34, 6-(2,6-dimethylphenyl)-2-((4-((2-(4-methyl-1-piperazinyl)ethyl)oxy)phenyl)amino)-pyrimido[5′,4′:5,6]pyrimido[1,2-a]benzimidazol-5(6H)-one]
Cc1cccc(C)c1-n1c(=O)c2cnc(Nc3ccc(OCCN4CCOCC4)cc3)nc2n2c3ccccc3nc12 [No. 29, 6-(2,6-dimethylphenyl)-2-((4-((2-(4-morpholinyl)-ethyl)oxy)phenyl)amino)pyrimido[5′,4′:5,6]-pyrimido[1,2-a]benzimidazol-5(6H)-one]
COc1cc(Nc2ncc3c(=O)n(-c4c(C)cccc4C)c4nc5ccccc5n4c3n2)cc(OC)c1OCCN1CCOCC1 [No. 30, 2-((3,5-bis(methyloxy)-4-((2-(4-morpholinyl)ethyl)-oxy)phenyl)amino)-6-(2,6-dimethylphenyl)-pyrimido[5′,4′:5,6]pyrimido[1,2-a]benzimidazol-5(6H)-one]
Cc1cccc(C)c1-n1c(=O)c2cnc(Nc3ccc(N4CCN(CC5CCCCC5)CC4)cc3)nc2n2c3ccccc3nc12 [No. 42, 2-((4-(4-(cyclohexylmethyl)-1-piperazinyl)phenyl)-amino)-6-(2,6-dimethylphenyl)pyrimido[5′,4′:5,6]-pyrimido[1,2-a]benzimidazol-5(6H)-one]
Cc1cccc(C)c1-n1c(=O)c2cnc(Nc3ccc(N4CCN(CCN(C)C)CC4)cc3)nc2n2c3ccccc3nc12 [No. 45, 2-((4-(4-(2-(dimethylamino)ethyl)-1-piperazinyl)-phenyl)amino)-6-(2,6-dimethylphenyl)-pyrimido[5′,4′:5,6]pyrimido[1,2-a]benzimidazol-5(6H)-one]
Cc1cccc(C)c1-n1c(=O)c2cnc(Nc3ccc(OC[C@@H]4CCCN4)cc3)nc2n2c3ccccc3nc12 [No. 14, 6-(2,6-dimethylphenyl)-2-((4-(((2S)-2-pyrrolidinylmethyl)oxy)phenyl)amino)-pyrimido[5′,4′:5,6]pyrimido[1,2-a]benzimidazol-5(6H)-one]
